Laboratory results as given in ChEMBL document CHEMBL4616633, “Citral Inhibits the Inflammatory Response and Hyperalgesia in Mice: The Role of TLR4, TLR2/Dectin-1, and CB2 Cannabinoid Receptor/ATP-Sensitive K+ Channel Pathways” (J Nat Prod, 2020).
Calls of active or inactive are those of the source. The calls are words filed in the database; no cut-off is given here.

Columns and labels:
Mus musculus [1] = test: Inhibition of carrageenan-induced thermal allodynia in Swiss mouse at 1 mg/kg, ip pretreated for 30 mins followed by carrageenan-stimulation and measured after 6 hrs; assay type: functional, organism-based
Mus musculus [2] = test: Inhibition of carrageenan-induced paw edema in Swiss mouse at 1 mg/kg, ip pretreated for 30 mins followed by carrageenan-stimulation and measured after 6 hrs; assay type: functional, organism-based
Mus musculus [3] = test: Inhibition of carrageenan-induced paw edema in Swiss mouse at 50 mg/kg, po pretreated for 30 mins followed by carrageenan-stimulation and co-treated with CB2R antagonist AM630 and measured after 6 hrs; assay type: functional, organism-based
[4] = Toxicity in Swiss mouse assessed as effect on total cholesterol level weight at 5 to 2000 mg/kg, po after 14 days; assay type: organism-based; settings: in vivo, 336 h
[5] = Psychoactive effect in Swiss mouse assessed as hypothermic effects at 50 mg/kg, po and measured for 6 hrs by thermometric method; assay type: ADME, organism-based; settings: in vivo
[6] = Toxicity in Swiss mouse assessed as water consumption at 5 mg/kg, po after 14 days (reference value: 50.5%); assay type: organism-based; settings: in vivo, 336 h
Mus musculus [7] = test: Inhibition of carrageenan-induced thermal allodynia in Swiss mouse at 50 mg/kg, po pretreated for 30 mins followed by carrageenan-stimulation and co-treated with CB2R antagonist AM630 and measured after 6 hrs; assay type: functional, organism-based
[8] = Toxicity in Swiss mouse assessed as water consumption at 300 mg/kg, po after 14 days (reference value: 50.5%); assay type: organism-based; settings: in vivo, 336 h
Mus musculus [9] = test: Inhibition of LPS-induced TLR4 pathway assessed as reduction in paw edema in Swiss mouse at 50 mg/kg, po pretreated for 1 hr followed by LPS-stimulation and measured after 48 hrs relative to control; assay type: functional
Mus musculus [10] = test: Inhibition of carrageenan-induced thermal allodynia in Swiss mouse at 50 mg/kg, po pretreated for 30 mins followed by carrageenan-stimulation and co-treated with CB1R antagonist AM281 and measured after 6 hrs; assay type: functional, organism-based
[11] = Toxicity in Swiss mouse assessed as increase in weight gain at 5 to 2000 mg/kg, po after 14 days; assay type: organism-based; settings: in vivo, 336 h
[12] = Toxicity in Swiss mouse assessed as effect on ALP level weight at 5 to 2000 mg/kg, po after 14 days; assay type: organism-based; settings: in vivo, 336 h
Mus musculus [13] = test: Inhibition of carrageenan-induced paw edema in Swiss mouse at 50 mg/kg, po pretreated for 30 mins followed by carrageenan-stimulation and co-treated with glibenclamide and measured after 6 hrs; assay type: functional, organism-based
[14] = Toxicity in Swiss mouse assessed as effect on lung weight at 5 to 2000 mg/kg, po after 14 days; assay type: organism-based; settings: in vivo, 336 h
[15] = Toxicity in Swiss mouse assessed as effect on heart weight at 5 to 2000 mg/kg, po after 14 days; assay type: organism-based; settings: in vivo, 336 h
Mus musculus [16] = test: Inhibition of croton oil-induced ear edema in mouse at 0.1 mg/ear administered topically pretreated for 1 hr followed by croton oil-stimulation and measured after 6 hrs relative to control; assay type: functional
[17] = Toxicity in Swiss mouse assessed as effect on uric acid level weight at 5 to 2000 mg/kg, po after 14 days; assay type: organism-based; settings: in vivo, 336 h
[18] = Toxicity in Swiss mouse assessed as food consumption at 50 mg/kg, po after 14 days (reference value: 27.3%); assay type: organism-based; settings: in vivo, 336 h
[19] = Toxicity in Swiss mouse assessed as effect on blood urea nitrogen level weight at 5 to 2000 mg/kg, po after 14 days; assay type: organism-based; settings: in vivo, 336 h
Mus musculus [20] = test: Inhibition of zymosan-induced TLR2/Dectin-1 Signaling Pathway assessed as reduction in paw edema in Swiss mouse at 50 mg/kg, po pretreated for 1 hr followed by […] and measured after 48 hrs relative to control; assay type: functional
[21] = Psychoactive effect in Swiss mouse assessed as reduction in locomotor activity by measuring change in distance travelled at 50 mg/kg, po and measured for 6 hrs; assay type: ADME, organism-based; settings: in vivo
Mus musculus [22] = test: Inhibition of carrageenan-induced paw edema in Swiss mouse at 50 mg/kg, po pretreated for 1 hr followed by carrageenan-stimulation and measured after 6 hrs relative to control; assay type: functional
Mus musculus [23] = test: Inhibition of carrageenan-induced thermal allodynia in Swiss mouse at 100 mg/kg, po pretreated for 1 hr followed by carrageenan-stimulation and measured after 6 hrs relative to control; assay type: functional
[24] = Toxicity in Swiss mouse assessed as reduction in locomotion at 1000 mg/kg, po after 14 days; assay type: organism-based; settings: in vivo, 336 h
[25] = Toxicity in Swiss mouse assessed as effect on paradoxical breathing at 2000 mg/kg, po after 14 days; assay type: organism-based; settings: in vivo, 336 h
[26] = Toxicity in Swiss mouse assessed as effect on kidney weight at 5 to 2000 mg/kg, po after 14 days; assay type: organism-based; settings: in vivo, 336 h
[27] = Toxicity in Swiss mouse assessed as effect on touch sensitivity at 1000 mg/kg, po after 14 days; assay type: organism-based; settings: in vivo, 336 h
[28] = Toxicity in Swiss mouse assessed as effect on AST level weight at 5 to 2000 mg/kg, po after 14 days; assay type: organism-based; settings: in vivo, 336 h
[29] = Toxicity in Swiss mouse assessed as effect on ALT level weight at 5 to 2000 mg/kg, po after 14 days; assay type: organism-based; settings: in vivo, 336 h
[30] = Toxicity in Swiss mouse assessed as food consumption at 5 mg/kg, po after 14 days (reference value: 27.3%); assay type: organism-based; settings: in vivo, 336 h
[31] = Toxicity in Swiss mouse assessed as effect on total protein level weight at 5 to 2000 mg/kg, po after 14 days; assay type: organism-based; settings: in vivo, 336 h
[32] = Psychoactive effect in Swiss mouse assessed as antinociceptive effect by measuring paw withdrawal latencies at 50 mg/kg, po and measured for 6 hrs; assay type: ADME, organism-based; settings: in vivo
Mus musculus [33] = test: Inhibition of carrageenan-induced thermal allodynia in Swiss mouse at 50 mg/kg, po pretreated for 30 mins followed by carrageenan-stimulation and co-treated glibenclamide and measured after 6 hrs; assay type: functional, organism-based
[34] = Toxicity in Swiss mouse assessed as water consumption at 50 mg/kg, po after 14 days (reference value: 50.5%); assay type: organism-based; settings: in vivo, 336 h
Mus musculus [35] = test: Inhibition of carrageenan-induced thermal allodynia in Swiss mouse at 50 mg/kg, po pretreated for 1 hr followed by carrageenan-stimulation and measured after 6 hrs relative to control; assay type: functional
Mus musculus [36] = test: Inhibition of carrageenan-induced paw edema in Swiss mouse at 50 mg/kg, po pretreated for 30 mins followed by carrageenan-stimulation and co-treated with CB1R antagonist AM281 and measured after 6 hrs; assay type: functional, organism-based
[37] = Toxicity in Swiss mouse assessed as effect on creatinine level weight at 5 to 2000 mg/kg, po after 14 days; assay type: organism-based; settings: in vivo, 336 h
[38] = Toxicity in Swiss mouse assessed as water consumption at 2000 mg/kg, po after 14 days (reference value: 50.5%); assay type: organism-based; settings: in vivo, 336 h
[39] = Toxicity in Swiss mouse assessed as effect on glucose level weight at 5 to 2000 mg/kg, po after 14 days; assay type: organism-based; settings: in vivo, 336 h
[40] = Toxicity in Swiss mouse assessed as effect on touch sensitivity at 2000 mg/kg, po after 14 days; assay type: organism-based; settings: in vivo, 336 h
[41] = Toxicity in Swiss mouse assessed as food consumption at 300 mg/kg, po after 14 days (reference value: 27.3%); assay type: organism-based; settings: in vivo, 336 h
[42] = Toxicity in Swiss mouse assessed as reduction in locomotion at 2000 mg/kg, po after 14 days; assay type: organism-based; settings: in vivo, 336 h
[43] = Toxicity in Swiss mouse assessed as food consumption at 1000 mg/kg, po after 14 days (reference value: 27.3%); assay type: organism-based; settings: in vivo, 336 h
[44] = Toxicity in Swiss mouse assessed as food consumption at 2000 mg/kg, po after 14 days (reference value: 27.3%); assay type: organism-based; settings: in vivo, 336 h
[45] = Toxicity in Swiss mouse assessed as effect on triglycerides level weight at 5 to 2000 mg/kg, po after 14 days; assay type: organism-based; settings: in vivo, 336 h
[46] = Psychoactive effect in Swiss mouse assessed as catalepsy effect at 50 mg/kg, po and measured for 6 hrs; assay type: ADME, organism-based; settings: in vivo
Mus musculus [47] = test: Inhibition of carrageenan-induced paw edema in Swiss mouse at 300 mg/kg, po pretreated for 1 hr followed by carrageenan-stimulation and measured after 6 hrs relative to control; assay type: functional
[48] = Toxicity in Swiss mouse assessed as water consumption at 1000 mg/kg, po after 14 days (reference value: 50.5%); assay type: organism-based; settings: in vivo, 336 h
[49] = Toxicity in Swiss mouse assessed as effect on liver weight at 5 to 2000 mg/kg, po after 14 days; assay type: organism-based; settings: in vivo, 336 h
[50] = Toxicity in Swiss mouse assessed as effect on respiratory movement at 1000 mg/kg, po after 14 days; assay type: organism-based; settings: in vivo, 336 h
Mus musculus [51] = test: Inhibition of croton oil-induced ear edema in mouse at 0.3 mg/ear administered topically pretreated for 1 hr followed by croton oil-stimulation and measured after 6 hrs relative to control; assay type: functional
[52] = Toxicity in Swiss mouse assessed as mortality at 5 to 1000 mg/kg, po after 14 days; assay type: organism-based; settings: in vivo, 336 h
Mus musculus [53] = test: Inhibition of carrageenan-induced thermal allodynia in Swiss mouse at 300 mg/kg, po pretreated for 1 hr followed by carrageenan-stimulation and measured after 6 hrs relative to control; assay type: functional
Mus musculus [54] = test: Inhibition of carrageenan-induced paw edema in Swiss mouse at 100 mg/kg, po pretreated for 1 hr followed by carrageenan-stimulation and measured after 6 hrs relative to control; assay type: functional

Question: Which inhibition (Mus musculus [1]) does the source give for COc1ccc(C(=O)c2c(C)n(CCN3CCOCC3)c3cc(I)ccc23)cc1 here?
Answer: inactive

Question: What about the inhibition (Mus musculus [2]) of the same compound?
Answer: inactive

Question: With CC(C)=CCCC(C)=CC=O (mixture of isomers) as the compound, how does the inhibition (Mus musculus [3]) read?
Answer: inactive

Question: And the Activity [4]?
Answer: Non-Toxic

Question: And the Activity [5]?
Answer: Non-Toxic

Question: What about the Activity [6] of the same compound?
Answer: 44.4%

Question: And the inhibition (Mus musculus [7])?
Answer: inactive

Question: What about the Activity [8] of the same compound?
Answer: 36%

Question: What about the inhibition in vivo at 50 mg/kg (Mus musculus [9]) of the same compound?
Answer: 70%

Question: What about the inhibition (Mus musculus [10]) of the same compound?
Answer: Active

Question: And the Activity [11]?
Answer: Non-Toxic

Question: And the Activity [12]?
Answer: Non-Toxic

Question: What about the inhibition (Mus musculus [13]) of the same compound?
Answer: inactive

Question: And the Activity [14]?
Answer: Non-Toxic

Question: And the Activity [15]?
Answer: Non-Toxic

Question: And the “inhibition (INH)” value (Mus musculus [16])?
Answer: 22%

Question: What about the Activity [17] of the same compound?
Answer: Non-Toxic

Question: What about the Activity [18] of the same compound?
Answer: 21.4%

Question: And the Activity [19]?
Answer: Non-Toxic

Question: And the inhibition in vivo at 50 mg/kg (Mus musculus [20])?
Answer: 45%

Question: And the Activity [21]?
Answer: Non-Toxic

Question: What about the inhibition in vivo at 50 mg/kg (Mus musculus [22]) of the same compound?
Answer: 57%

Question: And the inhibition in vivo at 100 mg/kg (Mus musculus [23])?
Answer: 80%

Question: What about the Activity [24] of the same compound?
Answer: Non-Toxic

Question: And the Activity [25]?
Answer: Non-Toxic

Question: And the Activity [26]?
Answer: Non-Toxic

Question: What about the Activity [27] of the same compound?
Answer: Non-Toxic

Question: And the Activity [28]?
Answer: Non-Toxic

Question: And the Activity [29]?
Answer: Non-Toxic

Question: What about the Activity [30] of the same compound?
Answer: 31.2%

Question: And the Activity [31]?
Answer: Non-Toxic

Question: And the Activity [32]?
Answer: Non-Toxic

Question: And the inhibition (Mus musculus [33])?
Answer: inactive

Question: What about the Activity [34] of the same compound?
Answer: 37.5%

Question: What about the inhibition in vivo at 50 mg/kg (Mus musculus [35]) of the same compound?
Answer: 62%

Question: What about the inhibition (Mus musculus [36]) of the same compound?
Answer: Active

Question: What about the Activity [37] of the same compound?
Answer: Non-Toxic

Question: And the Activity [38]?
Answer: 15.6%

Question: And the Activity [39]?
Answer: Non-Toxic

Question: And the Activity [40]?
Answer: Non-Toxic

Question: And the Activity [41]?
Answer: 28.1%

Question: And the Activity [42]?
Answer: Non-Toxic

Question: And the Activity [43]?
Answer: 28.1%

Question: What about the Activity [44] of the same compound?
Answer: 8.8%

Question: And the Activity [45]?
Answer: Non-Toxic

Question: And the Activity [46]?
Answer: Non-Toxic

Question: What about the inhibition in vivo at 300 mg/kg (Mus musculus [47]) of the same compound?
Answer: 66%

Question: And the Activity [48]?
Answer: 40%

Question: What about the Activity [49] of the same compound?
Answer: Non-Toxic

Question: What about the Activity [50] of the same compound?
Answer: Non-Toxic

Question: What about the “inhibition (INH)” value (Mus musculus [51]) of the same compound?
Answer: 83%

Question: And the Activity [52]?
Answer: Non-Toxic

Question: What about the inhibition in vivo at 300 mg/kg (Mus musculus [53]) of the same compound?
Answer: 62%

Question: What about the inhibition in vivo at 100 mg/kg (Mus musculus [54]) of the same compound?
Answer: 70%
